Converted amounts (≈) assume the structure as drawn. Like-named read-outs stand apart in the source and are kept apart here.

Among the data in patent US10913720B2, “Benzyloxypyridylcyclopropanecarboxylic acids, pharmaceutical compositions and uses thereof” (Boehringer Ingelheim International GmbH, priority 2017, dated 2021) are EC50 and solubility values, retold here.

In one series the target is human GPR40 receptor (Homo sapiens, UniProt O14842). Put plainly: IP1 accumulation measurements using the IPOne assay system. In kind it is cell-based. As to conditions: 1321N1 cells stably expressing human GPR40; 1 h stimulation at 37° C. The method, then: IP1 accumulation measurements using the IPOne assay system—1321N1 cells stably expressing human GPR40 receptor (Euroscreen, Belgium) are seeded 24 h before the assay in white 384-well plates in culture medium containing 10% FCS, 1% Na-Pyruvate and 400 μg/mL G418. IP1 is assayed according to the manufacturer's description (Cisbio Bioassays, France). In brief, the assay is started by substitution of the culture medium by stimulation buffer (Hepes 10 mM, CaCl2) 1 mM, MgCl2 0.5 mM, KCl 4.2 mM, NaCl 146 mM, glucose 5.5 mM and LiCl 50 mM, pH 7.4). Cells are stimulated for 1 h at 37° C., 5% CO2 by addition of the compounds that are diluted in stimulation buffer containing LiCl. Assays are stopped by adding HTRF-conjugates (IP1-d2 and Anti-IP1 cryptate Tb) and lysis buffer, provided by the manufacturer. After an incubation time of 1 h at room temperature plates are measured using an EnVision™, Perkin Elmer. The obtained fluorescence ratios at 665/615 […] are then used to calculate the pEC50 values using Assay Explorer 3.3 Software (Accelrys, Inc.) by interpolation using an IP1 reference curve and subsequent sigmoidal curve fitting allowing for a variable hill slope.

Series [1] in a line: Aqueous solubility (buffer vs acetonitrile/water, LC-UV). It counts as physicochemical. The conditions noted are these: kinetic from dmso stock, 2.5% DMSO. The method, then: The aqueous solubility of the compounds of the invention is determined by comparing the amount dissolved in buffer to the amount in an acetonitrile/water (1/1) solution. Starting from a 10 mM DMSO stock solution aliquots are diluted with acetonitrile/water (1/1) or buffer, respectively. After 24 h of shaking, the solutions are filtrated and analyzed by LC-UV. The amount dissolved in buffer is compared to the amount in the acetonitrile solution.
Solubility is usually being measured from 0.001 to 0.125 mg/mL at a DMSO concentration of 2.5%. If more than 90% of the compound is dissolved in buffer, the value is marked with “>”.

Where [2] appears, read: pH 2.2, 24 h shaking, read-out: Solubility at pH 2.2.
Where [3] appears, read: pH 6.8, 24 h shaking, read-out: Solubility at pH 6.8.

Sequence of human GPR40 receptor (O14842 whole entry): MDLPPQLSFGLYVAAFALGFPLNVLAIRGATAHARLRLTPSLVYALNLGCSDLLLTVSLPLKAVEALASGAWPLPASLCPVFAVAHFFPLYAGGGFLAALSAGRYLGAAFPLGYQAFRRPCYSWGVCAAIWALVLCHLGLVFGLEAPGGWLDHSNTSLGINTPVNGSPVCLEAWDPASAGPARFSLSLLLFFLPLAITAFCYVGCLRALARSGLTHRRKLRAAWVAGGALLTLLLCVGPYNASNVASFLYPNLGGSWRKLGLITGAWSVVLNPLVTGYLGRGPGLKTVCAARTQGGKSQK

As a reminder, the EC50 is the concentration that produces a half-maximal response. Usually solubility stands for the concentration that dissolves in the medium under given conditions. With `Cc1cc(-c2nnn(C)n2)cc(C)c1-c1cccc(COc2ccc([C@H]3C[C@@H]3C(=O)O)nc2)c1` [Example 1, (1S,2S)-2-{5-[2′,6′-Dimethyl-4′-(2-methyl-2H-tetrazol-5-yl)-biphenyl-3-ylmethoxy]-pyridin-2-yl}-cyclopropanecarboxylic Acid], a half-maximal effect at human GPR40 receptor (EC50) was put at 5 nM. Further, the solubility at 24 h in series [1] (setting [2]) came out at 7 µg/mL (≈ 15.4 µM); in series [1] (setting [3]), 19 µg/mL (≈ 41.7 µM). The matching figures for `Cc1cc(OCCC(C)(C)O)cc(C)c1-c1cccc(COc2ccc([C@H]3C[C@@H]3C(=O)O)nc2)c1` [Example 3, (1S,2S)-2-{5-[4′-(3-Hydroxy-3-methyl-butoxy)-2′,6′-dimethyl-biphenyl-3-ylmethoxy]-pyridin-2-yl}-cyclopropanecarboxylic Acid]: 19 nM, 24 µg/mL (≈ 50.5 µM) and 40 µg/mL (≈ 84.1 µM). `O=C(O)[C@H]1C[C@@H]1c1ccc(OCc2cccc(-c3c(Cl)cccc3Cl)c2)cn1` [Example 15, (1S,2S)-2-[5-(2′,6′-Dichloro-biphenyl-3-ylmethoxy)-pyridin-2-yl]-cyclopropane-carboxylic Acid] gave an EC50 on human GPR40 receptor of 24 nM. Same read-out and setting: to `Cc1cc(OCCCS(C)(=O)=O)cc(C)c1-c1cccc(COc2ccc([C@H]3C[C@@H]3C(=O)O)nc2)c1` [Example 16, (1S,2S)-2-{5-[4′-(3-Methanesulfonyl-propoxy)-2′,6′-dimethyl-biphenyl-3-ylmethoxy]-pyridin-2-yl}-cyclopropanecarboxylic Acid] belongs 37 nM.

Consider `Cc1cc(OCCC(C)(C)O)cc(C)c1-c1ccc(F)c2c1CC[C@H]2Oc1ccc([C@H]2C[C@@H]2C(=O)O)cc1` [Example 17 in WO 2013/178575, reference compound], for which the solubility at 24 h in series [1] (setting [2]) and in series [1] (setting [3]) was less than 1 µg/mL throughout.

Take `Cc1cc(-c2nnn(C)n2)cc(C)c1-c1ccc(F)c(COc2ccc([C@H]3C[C@@H]3C(=O)O)nc2)c1` [Example 17, (1S,2S)-2-{5-[4-Fluoro-2′,6′-dimethyl-4′-(2-methyl-2H-tetrazol-5-yl)-biphenyl-3-ylmethoxy]-pyridin-2-yl}-cyclopropanecarboxylic Acid]: it took 3 nM to reach a half-maximal effect at human GPR40 receptor (EC50). Regarding `Cc1cc(-c2nnn(CC(C)(C)O)n2)cc(C)c1-c1ccc(F)c(COc2ccc([C@H]3C[C@@H]3C(=O)O)nc2)c1` [Example 18, (1S,2S)-2-(5-{4-Fluoro-4′-[2-(2-hydroxy-2-methyl-propyl)-2H-tetrazol-5-yl]-2′,6′-dimethyl-biphenyl-3-ylmethoxy}-pyridin-2-yl)-cyclopropanecarboxylic Acid], the EC50 on human GPR40 receptor is 6 nM.

In turn, `Cc1cc(-c2cnccn2)cc(C)c1-c1ccc(F)c(COc2ccc([C@H]3C[C@@H]3C(=O)O)nc2)c1` [Example 19, (1S,2S)-2-[5-(4-Fluoro-2′,6′-dimethyl-4′-pyrazin-2-yl-biphenyl-3-ylmethoxy)-pyridin-2-yl]-cyclopropanecarboxylic Acid] returned an EC50 at human GPR40 receptor of 7 nM. The same measure, in the same setting: to `COc1cc(-c2cc(C)c(-c3ccc(F)c(COc4ccc([C@H]5C[C@@H]5C(=O)O)nc4)c3)c(C)c2)ccn1` [Example 20, (1S,2S)-2-{5-[4-Fluoro-4′-(2-methoxy-pyridin-4-yl)-2′,6′-dimethyl-biphenyl-3-ylmethoxy]-pyridin-2-yl}-cyclopropanecarboxylic Acid] belongs 5 nM; to `Cc1cc(-c2ccnn2C)cc(C)c1-c1ccc(F)c(COc2ccc([C@H]3C[C@@H]3C(=O)O)nc2)c1` [Example 21, (1S,2S)-2-{5-[4-Fluoro-2′,6′-dimethyl-4′-(2-methyl-2H-pyrazol-3-yl)-biphenyl-3-ylmethoxy]-pyridin-2-yl}-cyclopropanecarboxylic Acid], 6 nM.

Consider `Cc1cnc(-c2cc(C)c(-c3ccc(F)c(COc4ccc([C@H]5C[C@@H]5C(=O)O)nc4)c3)c(C)c2)nc1` [Example 22, (1S,2S)-2-{5-[4-Fluoro-2′,6′-dimethyl-4′-(5-methyl-pyrimidin-2-yl)-biphenyl-3-ylmethoxy]-pyridin-2-yl}-cyclopropanecarboxylic Acid], for which the response on human GPR40 receptor was half-maximal at 4 nM (EC50). On the same count and under the same terms, to `Cc1cc(OCC2(C)COC2)cc(C)c1-c1ccc(F)c(COc2ccc([C@H]3C[C@@H]3C(=O)O)nc2)c1` [Example 23, (1S,2S)-2-{5-[4-Fluoro-2′,6′-dimethyl-4′-(3-methyl-oxetan-3-ylmethoxy)-biphenyl-3-ylmethoxy]-pyridin-2-yl}-cyclopropanecarboxylic Acid] belongs 24 nM.

Turning to `Cc1cc(C(=O)O)cc(C)c1-c1ccc(F)c(COc2ccc([C@H]3C[C@@H]3C(=O)O)nc2)c1` [Example 24, (1S,2S)-3′-[6-(−2-Carboxy-cyclopropyl)-pyridin-3-yloxymethyl]-4′-fluoro-2,6-dimethyl-biphenyl-4-carboxylic Acid], the EC50 on human GPR40 receptor was 2120 nM. In the case of `Cc1cc(OCC(C)(C)O)cc(C)c1-c1ccc(F)c(COc2ccc([C@H]3C[C@@H]3C(=O)O)nc2)c1` [Example 25, (1S,2S)-2-{5-[4-Fluoro-4′-(2-hydroxy-2-methyl-propoxy)-2′,6′-dimethyl-biphenyl-3-ylmethoxy]-pyridin-2-yl}-cyclopropanecarboxylic Acid], on human GPR40 receptor, it took 36 nM to reach a half-maximal effect (EC50).

The compound `Cc1cc(OCCC(C)(C)O)cc(C)c1-c1cc(COc2ccc([C@H]3C[C@@H]3C(=O)O)nc2)c(F)cc1F` [Example 26, (1S,2S)-2-{5-[4,6-Difluoro-4′-(3-hydroxy-3-methyl-butoxy)-2′,6′-dimethyl-biphenyl-3-ylmethoxy]-pyridin-2-yl}-cyclopropanecarboxylic Acid] had an EC50 on human GPR40 receptor of 12 nM. The same measure, in the same setting: to `COc1cnc(-c2ccc(-c3cc(COc4ccc([C@H]5C[C@@H]5C(=O)O)nc4)ccc3C(F)(F)F)cc2)nc1` [Example 28, (1S,2S)-2-{5-[4′-(5-Methoxy-pyrimidin-2-yl)-6-trifluoromethyl-biphenyl-3-ylmethoxy]-pyridin-2-yl}-cyclopropanecarboxylic Acid] belongs 4 nM; to `COc1ccc(-c2ccc(-c3cc(COc4ccc([C@H]5C[C@@H]5C(=O)O)nc4)ccc3C(F)(F)F)cc2)nn1` [Example 29, (1S,2S)-2-{5-[4′-(6-Methoxy-pyridazin-3-yl)-6-trifluoromethyl-biphenyl-3-ylmethoxy]-pyridin-2-yl}-cyclopropanecarboxylic Acid], 10 nM; to `CC(C)(O)CCOc1ccc(-c2cc(COc3ccc([C@H]4C[C@@H]4C(=O)O)nc3)ccc2C(F)(F)F)cc1` [Example 30, (1S,2S)-2-{5-[4′-(3-Hydroxy-3-methyl-butoxy)-6-trifluoromethyl-biphenyl-3-ylmethoxy]-pyridin-2-yl}-cyclopropanecarboxylic Acid], 12 nM. Consider `Cc1cc(-c2nnn(C)n2)cc(C)c1-c1ccc(F)c2c1CC[C@H]2Oc1ccc([C@H]2C[C@@H]2C(=O)O)cc1` [Example 45 in WO 2013/178575, reference compound], for which the solubility at 24 h in series [1] (setting [2]) and in series [1] (setting [3]) was less than 1 µg/mL throughout.
